{"source": "patent US20140094521A1", "about": "“BENZYLAMINE DERIVATIVE” (priority 2011, published 2014)", "type_in_all_cases": "cell-based", "key": {"[1]": {"test_system": "SP cell of human multiple myeloma cell line RPMI8226", "assay": "Anticancer activity against SP cell (Hoechst33342 flow cytometry)", "conditions": "5 μM", "description": "A stem cell can undergo differentiation into various tissues and cells such as a hematopoietic stem cell, and has the quality to exclude fluorescent chemical substance such as Hoechst33258 extracellularly. […] A cell having such properties is called as an SP cell, i.e. Side Population Cell. […] Therefore, an effect of the present invention compound against a cancerous SP cell was examined.\nSpecifically, human multiple myeloma cell line RPMI8226 was incubated in the presence of the present invention compound similarly to Example 4. The cell was dispersed in 3% FBS DMEH so that the concentration became 1×10^6 cells/mL. A temperature of the dispersion was increased to 37° C., and then Hoechst33342 was added thereto so that the concentration thereof became 5 μg/ml. The mixture was incubated at 37° C. for 60 minutes under a shaded state with stirring every 20 minutes. Then, the mixture was centrifuged at 800×g for 3 minutes, and the supernatant was removed. Further, a washing procedure in which cooled 2% FES PBS was added, the mixture was centrifuged and the supernatant was removed was repeated two times. Separately, propidium iodide was dissolved in PBS to obtain a 200 μg/mL solution. […] The emitted fluorescence was passed through a bandpass filters of 450 nm and 675 nm, and deployed to obtain a two-dimensional dot plot. […]"}, "[2]": {"test_system": "Human multiple myeloma cell line RPMI8226", "assay": "Anticancer activity against multiple myeloma cell (Cell Counting Kit-8, 3 days)", "conditions": "RPMI-8226, 72 h, read-out: IC50 value against a multiple myeloma cell", "description": "Human multiple myeloma cell line RPMI8226 was seeded on a 96 well plate in a density of 1×10^4 cells/well, and incubated under 5% carbon dioxide atmosphere at 37° C. overnight. Separately, the compound obtained in Example 2 was dissolved in dimethylsulfoxide, and added to each well so that the final concentration of the compound became 0.5 μM, 1 μM, 2 μM, 3 μM, 12.5 μM, 25 μM or 50 μM.\nIn addition, melphalan, which is a multiple myeloma therapeutic agent, was added to each well so that the final concentration of the compound became 10 μM, 20 μM, 30 μM, 40 μM or 50 μM as positive controls for comparison. Further, an experimental case in which only dimethylsulfoxide was added in the final concentration of 0.5 v/v % without adding the compound was provided.\nThen, after the cell was cultured under 5% carbon dioxide atmosphere at 37° C. for 3 days, an absorbance of formazan, which is an orange pigment produced by a living cell, at the wavelength of 420 nm was measured using a reagent for measuring cell proliferation/cytotoxicity (manufactured by Dojin Chemical Co., Cell Counting Kit-8). […] In addition, IC50 values were calculated from the obtained results."}, "[3]": {"test_system": "Human multiple myeloma cell line RPMI8226", "assay": "Survival rate of blood cancer cells (WST-8, 72 hours)", "conditions": "RPMI-8226, 72 h, read-out: EC50, Multiple myeloma cell", "description": "(§1) Human acute myelogenous leukemia cell line KG1 and human promyelocytic leukemia cell line HL60 in addition to human multiple myeloma cell line RPMI8226 were seeded in a highly nutrient medium containing 10% FES (RPMI1640, 100 μL) in a density of 1×10^3 cells/well. The cells were incubated under 5% carbon dioxide atmosphere at 37° C. overnight. Separately, the compound of Example 2 was dissolved in DMSO and the obtained solution was diluted with the same culture medium. The mixture was added to each well so that the final concentrations of the compound became 0.39 μM, 0.78 μM, 1.56 μM, 3.13 μM, 6.25 μM, 12.5 μM or 50 μM.\n(§2) In addition, melphalan, which is a multiple myeloma therapeutic agent, was added to each well at the same final concentrations as positive controls for comparison. Further, an experimental case in which only dimethylsulfoxide was added in the final concentration of 0.2 to 0.8 v/v % without adding the compound was provided.\n(§3) Then, after the cells were cultured under 5% carbon dioxide atmosphere at 37° C. for 72 hours, the culture medium was removed and a culture medium obtained by mixing 100 μL of the above culture medium and 10 μL of WST-8, which is a reagent for measuring a cell number, was added to each well. After the cells were cultured under 5% carbon dioxide atmosphere at 37° C. for 2 hours, an absorbance at 450 nm was measured. The absorbance value when the cells were treated with DMSO only was set to be 100%, and a ratio of absorbance values at each concentration of the present invention compound or melphalan relative to the value were calculated as survival rate of each blood cancer cell. In addition, EC50, i.e. 50% effective concentration value, of each compound against each blood cancer cell was calculated from the obtained results."}, "[4]": {"test_system": "human promyelocytic leukemia cell line HL60", "assay": "Survival rate of blood cancer cells (WST-8, 72 hours)", "conditions": "HL-60, 72 h, read-out: EC50, Promyelocytic leukemia cell", "description": "as §1, §2, §3"}, "[5]": {"test_system": "Human acute myelogenous leukemia cell line KG1", "assay": "Survival rate of blood cancer cells (WST-8, 72 hours)", "conditions": "read-out: EC50, Acute myelogenous leukemia cell", "description": "as §1, §2, §3"}}, "data": [{"smiles": "N[C@@H](Cc1ccc(N(CCCl)CCCl)cc1)C(=O)O", "note": "[Melphalan, melphalan]", "values": [{"measurement": "ratio of stained cells in SP region relative to the total cells", "setting": "[1]; control (0.5% DMSO only) 0.680 ± 0.0173%", "result": "0.563 ± 0.0777", "unit": "%"}, {"measurement": "ratio of stained cells in Non-SP region relative to the total cells", "setting": "[1]; control (0.5% DMSO only) 19.2 ± 0.295%", "result": "5.05 ± 0.414", "unit": "%"}, {"measurement": "IC50", "setting": "[2]", "result": 21, "unit": "µM"}, {"measurement": "EC50", "setting": "[3]", "result": 9.82, "unit": "µM"}, {"measurement": "EC50", "setting": "[4]", "result": 734, "unit": "nM"}, {"measurement": "EC50", "setting": "[5]", "result": 3.69, "unit": "µM"}]}]}
